The results in this text go back to patent publication US10722446B2, “Aqueous oral care compositions” (Colgate-Palmolive Company, priority 2011, dated 2020).

The nature of this series: Rheological properties (stress controlled AR2000ex rheometer, flow curve and strain sweep). It counts as physicochemical. From the text:
The three commercial mouthwashes are a simple fluoride-rinse type mouthwash (comparative formulation 1), a polymer based high fluoride mouthwash (comparative formulation 2), and a mouthwash having a conventional polymer system different from that described in this case (mouthwash 3). The rheological properties of the formulations are quantified using a stress controlled AR2000ex rheometer (TA Instruments) and a cuette type geometry. A flow curve is generated and fit to a power law model to quantify the flow rate index, n. A strain sweep is conducted to quantify the elastic modulus, G′ and the loss modulus, G″.

The mark [1] stands for this setting: flow curve fit to a power law model.
Setting [2] is: strain sweep, cuette type geometry.

Take `O` [Newtonian Fluid Example, Water]: under setting [1], the k was 1.1 cps and the “n (flow rate index)” value is on record as 1.0. Also, for the setting “ratio of elastic to viscous components”, the “G′/G″” value is on record as 0.09. Further, under setting [2], the “G′ (elastic modulus)” value worked out at 0.02 dyn/cm2 and the “G″ (loss modulus)” value is recorded as 0.23 dyn/cm2.
